Entries after “also recorded” stand apart in the source; their conditions may differ. Non-standard residues stand in square brackets, D forms with d. Residues, ends and D or L forms follow the SMILES beside them. No end group written: not given here. Hyp = O=C(O)[C@@H]1C[C@@H](O)CN1; aThr = C[C@H](O)[C@H](N)C(=O)O
Tests used:
SARS-CoV-2 [1] = test: Viral reduction plaque assay in Vero cells; type: cell-based; parameters: key to Inhibition of Infection: ++: Validated strong inhibitor; +/−: Validated modest inhibitor; −: Validated no effect; conditions: for Inhibition of Infection: in-vitro experiments, SARS-CoV2; for number of infected cells compared to positive control: Vero cells, increasing concentrations, 4 days
[2] = tested on: type I IFNs, ISGs, proinflammatory cytokines; type: cell-based, human; conditions: for type I IFNs, proinflammatory cytokines and ISGs in infected cells: cell line not given
SARS-CoV-2 [3] = type: cell-based
West Nile virus (WNV) = test: WNV replication in Vero cells by viral foci assay; type: cell-based; conditions: 100 μM
From the text: To exclude such possibilities, we tested the ability of any of the 4 active compounds plus one negative control compound to suppress the replication of West Nile virus (WNV), an RNA virus of the unrelated flavivirus family. […] Together, our experiments confirmed compounds ZINC000008077555, ZINC000230464020, ZINC000006623878, and ZINC000085876900 as specific inhibitors of SARS-CoV-2 replication but not interfering with the host cell.
The number of infectious SARS-CoV-2 virions was quantified by viral plaque assay. To this end, Vero cells were incubated with SARS-CoV-2 for 2 hrs and subsequently overlaid with 1% methylcellulose in culture medium. After 3-4 days, the cells were fixed in 10% formalin for 30 min, washed under tap water, and stained with crystal violet. The number of plaques corresponding to infections of individual cells by single virions was counted on a light table. The quantification of infectious WNV virions was performed similarly with the exception that the number of infected cell foci was determined by intracellular staining using a biotinylated anti-WNV-E antibody (clone E16), followed by an HRP-labeled anti-streptavidin antibody. HRP activity was detected with KPL Trueblue substrate (SeraCare).
Viral replication of SARS-CoV-2 in the presence of Mpro inhibitors was measured in Vero or Calu-3 cells in three ways. […] The virus-induced cytopathic effect was measured by determining the fraction of formalin-fixed adherent cells that remained after 3 days (Vero cells) or 4 days (Calu-3 cells). To this end, the cells were stained with crystal violet, PBS-washed, and air-dried. Following resuspension in methanol, crystal violet staining was measured in the spectrophometer at OD594. Cytotoxicity of the compounds was measured in parallel by the staining of uninfected cells incubated with the […]. In a second approach, drug activity was determined in Vero cells directly by viral plaque assay, using between 100-500 Pfu/well of virus and indicated concentrations of Mpro inhibitors. In a third approach, Vero cells were infected with SARS-CoV-2 or WNV at an MOI of 0.01 in the presence of […] of Mpro inhibitors for 2-3 days. Viral replication was measured indirectly at indicated time points by quantifying the titers of infectious virions in the supernatants with viral plaque or foci assays in the absence of the compounds. Viral replication in Calu-3 cells in the presence of indicated concentrations of compounds was determined similarly.

SARS-CoV-2 [4] = test: Cytopathic effect (CPE) assay in Vero cells with P-gp inhibitor CP-100356; type: cell-based; conditions: for EC50: Severe acute respiratory syndrome coronavirus 2, read-out: EC50 of inhibition of virus-induced CPE
Vero cells = conditions: 100 μM, with 2 μM CP-100356
Procedure: Vehicle-treated cells served as controls. The amounts of infectious virions in the cell supernatants were determined 2 days later by viral plaque assay.

Molecule	Inhibition of Infection (SARS-CoV-2 [1])	type I IFNs, proinflammatory cytokines and ISGs in infected cells [2]	number of infected cells compared to positive control (SARS-CoV-2 [1])	SARS-CoV-2 replication (viral titers in culture medium) (SARS-CoV-2 [3])	suppression of SARS-CoV-2 replication, post-treatment (SARS-CoV-2 [3])	suppression of SARS-CoV-2 replication, pre-treatment (SARS-CoV-2 [3])	suppression of viral replication (SARS-CoV-2 [3])	replication of WNV (West Nile virus (WNV))	EC50 (SARS-CoV-2 [4]) [µM]	replication of WNV (West Nile virus (WNV); listed as ZINC00000807555)	expression of type I IFNs, ISGs and proinflammatory cytokines vs cells infected without compound [2]	toxicity (Vero cells)	replication of WNV (West Nile virus (WNV); listed as ZINC0002304644020)	activity against virus-induced CPE (SARS-CoV-2 [4])
C[C@H](O)[C@H](N)C(=O)N[C@@H](Cc1ccc(O)cc1)C(=O)N[C@@H](CCCCN)C(=O)O [ZINC000005462364, (2S)-6-amino-2-[[(2S)-2-[[(2S,3S)-2-amino-3-hydroxybutanoyl]amino]-3-(4-hydroxyphenyl)propanoyl]amino]hexanoic acid] (H-[aThr]-Tyr-Lys-OH)	−													
COc1ccc(CNC(=O)Cc2c(C)c3ccc(O)c(O)c3oc2=O)c(OC)c1 [ZINC000006623878, 2-(7,8-dihydroxy-4-methyl-2-oxochromen-3-yl)-N-[(2,4-dimethoxyphenyl)methyl]acetamide]	++	enhance	significant drop	suppress SARS-CoV-2 replication	significant suppression	significant suppression	approximately 10 fold	did not significantly restrict replication of WNV; also recorded: do not impact WNV replication	4.6 to 22.6					
NC(=O)CC[C@H](NC(=O)OCc1ccccc1)C(=O)NCCc1ccc(F)cc1 [ZINC000008077555, benzyl N-[(2S)-5-amino-1-[2-(4-fluorophenyl)ethylamino]-1,5-dioxopentan-2-yl]carbamate]	+/−	enhance	significant drop	suppress SARS-CoV-2 replication			approximately 10 fold	did not significantly restrict replication of WNV	4.6 to 22.6	do not impact WNV replication				
Nc1ncnc2c1ncn2[C@@H]1O[C@H](COP(=O)(O)OP(=O)(O)OP(=O)(O)OC[C@@H]2O[C@H](n3cnc4c(N)ncnc43)[C@H](O)[C@@H]2O)[C@H](O)[C@@H]1O [ZINC000085591448, [[(2S,3S,4R,5S)-5-(6-aminopurin-9-yl)-3,4-dihydroxyoxolan-2-yl]methoxy-hydroxyphosphoryl] [[(2R,3R,4S,5R)-5-(6-aminopurin-9-yl)-3,4-dihydroxyoxolan-2-yl]methoxy-hydroxyphosphoryl] hydrogen phosphate]	−													
COc1ccc(-c2coc3c4c(cc(O)c3c2=O)OC(=O)C[C@@H]4c2ccc(OCC(N)=O)cc2)cc1 [ZINC000085876900, 2-[4-[(10R)-5-hydroxy-3-(4-methoxyphenyl)-4,8-dioxo-9,10-dihydropyrano[2,3-h]chromen-10-yl]phenoxy]acetamide]		enhance	significant drop	suppress SARS-CoV-2 replication	significant suppression	significant suppression	approximately 10 fold	did not significantly restrict replication of WNV; also recorded: do not impact WNV replication	4.6 to 22.6		significantly higher expression	toxic		
CC(C)n1[nH]c(=O)c2c(-c3ccc(O)c(O)c3)c3oc4c(O)c(=O)ccc4c3[nH]c21 [ZINC000085879857, 10-(3,4-dihydroxyphenyl)-6-hydroxy-14-propan-2-yl-8-oxa-13,14,16-triazatetracyclo[7.7.0.02,7.011,15]hexadeca-1,3,6,9,11(15)-pentaene-5,12-dione]	−													
COc1cc([C@H](CC(=O)NCCc2ccc(O)c(O)c2)c2c(O)nc3ccccn3c2=O)cc2c1OCCO2 [ZINC000230464020, (3S)-N-[2-(3,4-dihydroxyphenyl)ethyl]-3-(2-hydroxy-4-oxopyrido[1,2-a]pyrimidin-3-yl)-3-(5-methoxy-2,3-dihydro-1,4-benzodioxin-7-yl)propanamide]		enhance	significant drop	suppress SARS-CoV-2 replication	significant suppression	significant suppression	approximately 10 fold	did not significantly restrict replication of WNV	4.6 to 22.6		significantly higher expression		do not impact WNV replication	
C[C@H](NC(=O)[C@H](N)Cc1ccc(O)cc1)C(=O)N[C@H](Cc1ccccc1)C(=O)N1C[C@H](O)C[C@H]1C(=O)N[C@@H](Cc1ccc(O)cc1)C(N)=O [ZINC000644163977, (2S,4R)-N-[(2S)-1-amino-3-(4-hydroxyphenyl)-1-oxopropan-2-yl]-1-[(2R)-2-[[(2S)-2-[[(2R)-2-amino-3-(4-hydroxyphenyl)propanoyl]amino]propanoyl]amino]-3-phenylpropanoyl]-4-hydroxypyrrolidine-2-carboxamide] (H-[dY]A[dF][Hyp]Y-NH2)	+/−		modest	did not										negligible activity
RYLGYL [ZINC000097972782, (2S)-2-[[(2S)-2-[[2-[[(2S)-2-[[(2S)-2-[[(2S)-2-amino-5-(diaminomethylideneamino)pentanoyl]amino]-3-(4-hydroxyphenyl)propanoyl]amino]-4-methylpentanoyl]amino]acetyl]amino]-3-(4-hydroxyphenyl)propanoyl]amino]-4-methylpentanoic acid]	−													
